Tested on: HIV-1 (strain 111B)
Experiment: Time-of-addition assay with luminescent cells in 96- and 384-well plates
Type: cell-based
Conditions: early stages of addition; ATA 5 μM, AMD3100 and T20 1 μM; 96-well and 384-well plates; FIG. 6 and FIG. 7
Method: A MT4 cell line was used In the present example expressing a luciferase reporter gene under the control of a HIV-1-LTR promoter element. Cells were counted and a cell suspension of 500.000 ml or 350.000 ml was made for use in 96-well or 384 wells, respectively. The cells were centrifuged for 10 minutes at 400 g. Subsequently, cells were infected with at high multiplicity of infection with HIV-1 (strain 111B) at a host cell/virus titer of 1/1. Unabsorbed virus was removed by two washing steps in order to synchronize the infection. After the second washing step, cells were resuspended and the suspensions were distributed in the wells of a micro-titer plate in an amount of 95 μl or 36 μl in a 96-well or a 384 well format, respectively. At predefined time points 5 μl (96 well) and 4 μl (384 well) of compound was added. As compounds to be tested, reference compounds having well known mechanisms of action were included in the plates. […]
ATA was used in a concentration of 5 μM; AMD3100, T20 EFV ad SQV were used in a concentration of 1 μM and TMC143205 was used in a concentration of 1 μM. […] 100 μl Luc-lit™ substrate was added to each well and luminescence was monitored by processing the 96- and 384-well plates in a PerkinElmer-Viewlux™ within 30 minutes. HIV replication was quantified by measuring the luciferase signal.

Structure (SMILES)	inhibitory activity as a function of time of addition
c1cc(CN2CCCNCCNCCCNCC2)ccc1CN1CCCNCCNCCCNCC1 [AMD3100]	strong inhibitory activity
O=C(O)C1=CC(=C(c2ccc(O)c(C(=O)O)c2)c2ccc(O)c(C(=O)O)c2)C=CC1=O [ATA]	strong inhibitory activity

— patent US20060286547A1, “Time-of-addition assay for identifying anti-viral compounds” (priority 2003, published 2006)
